Like-named read-outs stand apart in the source and are kept apart here.
How the values were obtained:
[1] = test system: Frings audiogenic seizure susceptible mice; test: Audiogenic seizure susceptibility of Frings mice; assay type: in vivo; details: for P.I.: Table 6, TD50/ED50
Method: All compounds were administered i.p. Varying doses of the compounds were tested. At the predetermined time of peak anticonvulsant effect, individual mice were placed into a round Plexiglas chamber (diameter, 15 cm; height, 18 cm) pitted with an audio transducer (Model A5-ZC; FET Research & Development, Salt Lake City, Utah) and exposed to a high intensity sound stimulus (110 decibels, 11 KHz) for 25 seconds. Animals not displaying tonic forelimb or hindlimb extension were considered protected. The effect of the test compounds on motor performance was assessed by the rotorod test (Dunham and Miya, 1957). For this procedure, mice were tested for their ability to maintain balance on a rotating (6 rpm) knurled Plexiglas rod (1 inch diameter) for one minute. Mice unable to maintain balance in three successive trials during the test period were considered toxic. The median effective dose (ED50) and the median toxic dose (TD50) was calculated by probit analysis (Finney, 1971). For these studies, the dose of each test substance was varied between the limits of 0 and 100% protection and toxicity. The protective index (PI) is TD50/ED50.

in vivo = details: Frings, mouse
Method: (§1) All compounds were administered i.p. Varying doses of the compounds were tested. […] For this procedure, mice were tested for their ability to maintain balance on a rotating (6 rpm) knurled Plexiglas rod (1 inch diameter) for one minute. Mice unable to maintain balance in three successive trials during the test period were considered toxic. […] For these studies, the dose of each test substance was varied between the limits of 0 and 100% protection and toxicity. The protective index (PI) is TD50/ED50.

MT2 receptor subtype = target: T1, MT2 receptor subtype (Homo sapiens, UniProt P49286); details: radioligand binding, clones in NIH-3T3 cells; cited from earlier work
T1 construct: host or cells: NIH-3T3 cells
T1 sequence (P49286 1-362): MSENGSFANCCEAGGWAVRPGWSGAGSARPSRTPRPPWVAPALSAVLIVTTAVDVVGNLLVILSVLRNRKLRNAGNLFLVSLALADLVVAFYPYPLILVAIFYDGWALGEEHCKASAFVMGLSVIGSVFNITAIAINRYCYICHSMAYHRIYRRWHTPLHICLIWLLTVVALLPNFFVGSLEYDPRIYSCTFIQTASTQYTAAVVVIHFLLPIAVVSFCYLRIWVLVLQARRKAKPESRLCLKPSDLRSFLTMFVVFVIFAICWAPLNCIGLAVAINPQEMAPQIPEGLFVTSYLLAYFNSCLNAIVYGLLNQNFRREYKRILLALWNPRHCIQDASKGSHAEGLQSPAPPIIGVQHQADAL

[2] = test system: Frings audiogenic seizure-susceptible mice; test: Rotorod test of motor performance (toxicity) in Frings mice; details: Table 6, i.p., rotorod
Method: as §1

rat = details: cited from earlier work
mice = test: Elevated platform test for phencyclidine-like behavioral effects; assay type: in vivo; details: 44.5 nmol dose, control
Method: The in vivo phencyclidine-like behavioral effects of CGX-031-120 is assessed by the elevated platform test as described by Evoniuk et al. (1991). The platform test is a rapid method for evaluating the behavioral effects of phencyclidine-like dissociative anesthetics in mice. […] Alternatively, as a control, a 44.5 nmol dose of MK 801 (dizocilpine) elicited 87.5% drug-induced falls from the elevated platform.

[3] = Sugden's study; cited from earlier work
[4] = test system: children with sleep disturbances; details: single dose of 5-10 mg; cited from earlier work
rodents = details: 25 μg chronically for 13 weeks; cited from earlier work
[5] = Formalin model of persistent pain (Example 11); assay type: in vivo
Method: In this model, two distinct phases of nociceptive activity (paw licking) are observed. […] The second phase is caused by the release of inflammatory factors from tissue damage caused by formalin injection. This phase lasts for 30 to 40 minutes, and is a model of persistent inflammatory pain. The second phase is also predictive of analgesic drugs that will show efficacy in models of chronic and neurophathic pain. [drawing 2]

[6] = Sugden's study; cited from earlier work; remark: listed apart in the source
[7] = Mus musculus, ip, Table 6, i.p., time of peak effect, read-out: ED50
[8] = Table 6, i.p., time of peak effect

What does the source list for CCCC(CCC)C(=O)O [Depakote ®, reference compound]?
ED50 [1, 7]: 155 mg/kg; P.I. [1]: 2.6

With O=C1NC(=O)C(c2ccccc2)(c2ccccc2)N1 [Dilantin ®, reference compound] as the molecule, how does the TD50 (in vivo; ip) read?
The TD50 was 41 mg/kg.

And the ED50 [1, 7]?
The ED50 was 3.9 mg/kg.

And the P.I. [1]?
The P.I. was 10.5.

What does the source list for NC(=O)OCC(COC(N)=O)c1ccccc1 [Felbatol ®, reference compound]?
TD50 (in vivo; ip): 220 mg/kg; ED50 [1, 7]: 10 mg/kg; P.I. [1]: 22

For CCCC(=O)NCCc1c2n(c3ccc(OC)cc13)Cc1ccccc1-2 [IIK7, N-butanoyl-2-(2-methoxy-6H-isoindolo-[2,1a]-indol-11-yl)-ethanamine], which “selectivity for the MT2 receptor subtype” value (MT2 receptor subtype) is on record?
Its value is 140 fold.

For O=C1CN=C(c2ccccc2Cl)c2cc([N+](=O)[O-])ccc2N1 [Klonipin ®, reference compound], which “TD50” value [2] is on record?
Its value is 0.26 mg/kg.

What about the P.I. [1] of the same molecule?
Its P.I. is 2.6.

What about the “ED50” value [1, 8] of the same molecule?
Its value is 0.10 mg/kg.

For CC(=O)NCCc1c(Cc2ccccc2)[nH]c2ccccc12 [Luzindole], which “antagonism of melatonin induced anti-nociception” value (rat; i.c.v. (Luzindole 50 & 100 μg)) is on record?
The value was “antagonized”.

With C[C@]12N[C@H](Cc3ccccc31)c1ccccc12 [MK 801, reference compound] as the molecule, how does the “drug-induced falls from the elevated platform” value (mice) read?
The value was 87.5%.

With COc1ccc2[nH]cc(CCNC(C)=O)c2c1 [Melatonin, N-acetyl-5-methoxytryptamine] as the molecule, how does the “ED50 v 3-MPA” value [3] read?
The value was 115 mg/kg.

And the TD50 (in vivo; intraperitoneal)?
The TD50 was 363 mg/kg.

And the TD50 (in vivo; ip)?
Its TD50 is 342 mg/kg.

And the “frequency of epileptic attacks” value [4]?
Its value is “positive effect”.

And the “number and severity of seizures induced by PTZ” value (rodents)?
Its value is “reduced the number and severity of seizures”.

What about the “licking time following formalin injection” value ([5]; both phases, 5 doses) of the same molecule?
The value was “dose-dependently reduced the licking time”.

And the “dose at which reduction of licking time reaches significance” value ([5]; phase one)?
Its value is no less than 100 mg/kg.

What about the “dose at which reduction of licking time reaches significance” value ([5]; phase two) of the same molecule?
The value was no less than 200 mg/kg.

What about the anti-nociceptive effect (rat; ip 30, 60, 120 mg/kg) of the same molecule?
The anti-nociceptive effect was “dose-dependent anti-nociceptive effect”.

What about the “ED50 v ECS” value [6] of the same molecule?
The value was 159 mg/kg.

What about the ED50 ([1]; Mus musculus, ip) of the same molecule?
The ED50 was 82 mg/kg.

And the ED50 ([1]; audiogenic mouse model, read-out: ED50)?
The ED50 was 83 mg/kg.

Which “TD50” value [2] does the source give for NC(=O)N1c2ccccc2C=Cc2ccccc21 [Tegratol ®, reference compound] here?
Its value is 45.4 mg/kg.

And the P.I. [1]?
Its P.I. is 4.1.

And the “ED50” value [1, 8]?
Its value is 11.2 mg/kg.

Which TD50 (in vivo; ip) does the source give for CCC1(C)CC(=O)NC1=O (stereo not shown) [Zarontin ®, reference compound] here?
The TD50 was 340 mg/kg.

What about the P.I. [1] of the same molecule?
The P.I. was 1.04.

From patent US20020040018A1, “Subtype selective melatonergics” (priority 2000, published 2002)
